The results in this text go back to ChEMBL document CHEMBL2073830, “A novel inhibitor of the mammalian peptide transporter PEPT1” (Biochemistry, 2001).

For orientation: Ki means the dissociation constant of the complex between target and ligand, obtained from inhibition or displacement. The low end stands for a stronger hold on the target, the high end for a looser hold on the target.

Structures are written as SMILES. Non-standard residues stand in square brackets, D forms with d. Residues, ends and D or L forms follow the SMILES beside them. *: point of attachment. Cbz = O=C(OCc1ccccc1)*

In the assay the target is T1, Solute carrier family 15 member 1 (Homo sapiens, UniProt P46059).
T1 sequence (P46059 whole entry): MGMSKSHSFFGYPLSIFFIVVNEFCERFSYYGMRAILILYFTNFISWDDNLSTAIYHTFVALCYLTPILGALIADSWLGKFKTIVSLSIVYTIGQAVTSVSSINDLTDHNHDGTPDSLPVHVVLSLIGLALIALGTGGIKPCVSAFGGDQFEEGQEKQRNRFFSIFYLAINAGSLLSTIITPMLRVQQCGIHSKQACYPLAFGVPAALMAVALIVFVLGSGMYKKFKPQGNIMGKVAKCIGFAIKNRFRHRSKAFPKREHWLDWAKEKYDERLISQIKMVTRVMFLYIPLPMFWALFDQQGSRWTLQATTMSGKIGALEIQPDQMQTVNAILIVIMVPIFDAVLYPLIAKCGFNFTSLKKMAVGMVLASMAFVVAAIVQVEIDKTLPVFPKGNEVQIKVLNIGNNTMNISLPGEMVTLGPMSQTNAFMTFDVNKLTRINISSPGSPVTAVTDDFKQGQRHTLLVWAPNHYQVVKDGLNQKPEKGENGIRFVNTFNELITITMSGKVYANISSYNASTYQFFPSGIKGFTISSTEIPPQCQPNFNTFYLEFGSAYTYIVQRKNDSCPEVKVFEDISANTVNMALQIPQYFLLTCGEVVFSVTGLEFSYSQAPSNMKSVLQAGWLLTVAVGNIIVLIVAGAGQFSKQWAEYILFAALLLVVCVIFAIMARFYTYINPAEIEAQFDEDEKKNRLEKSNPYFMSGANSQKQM
The assay can be described thus: TP_TRANSPORTER: inhibition of Gly-Sar uptake in Caco-2 cells. The class given is functional, cell-based.
The compound `N[C@@H](CCCCNC(=O)OCc1ccc([N+](=O)[O-])cc1)C(=O)N1CCC[C@H]1C(=O)O` gave a Ki of 19 µM. That is a double-digit micromolar value.

Compound `NCCCC[C@H](NC(=O)OCc1ccccc1)C(=O)N1CCC[C@H]1C(=O)O` (Cbz-Lys-Pro-OH) came in with a Ki of 33 µM.

In turn, `NCCCC[C@H](N)C(=O)N1CCC[C@@H]1C(=O)O` (H-Lys-[dP]-OH) returned a Ki of 350 µM.
